# Tests used:
# Assay type in all cases: in vivo
# Conditions in all cases: applied at 1000 g/h, evaluated after 13 days
# [1] = tested on: Alopecurus myosuroides (ALOMY); experiment: Herbicidal glasshouse test, pre-emergence, ALOMY
# Setaria faberi (SETFA) [2] = experiment: Herbicidal glasshouse test, pre-emergence, SETFA
# [3] = tested on: Echinochloa crus-galli (ECHCG); experiment: Herbicidal glasshouse test, pre-emergence, ECHCG
# How it was run: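 In this pre-emergence glasshouse test, ECHCG seeds sown in pots of standard soil were sprayed one day after sowing with the test material in acetone/water (50:50) containing 0.5% Tween 20. Plants were kept at 24/16° C., 14 hours light, 65% humidity, and watered twice daily. Percentage damage was rated after 13 days on a 1–5 scale.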
# Solanum nigrum (SOLNI) [4] = experiment: Herbicidal glasshouse test, pre-emergence, SOLNI
# How it was run: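 This pre-emergence glasshouse herbicide test used Solanum nigrum sown in standard soil. One day after sowing, pots were sprayed with the compound in acetone/water (50:50) with 0.5% Tween 20. They were then grown at 24/16° C., with 14 hours light and 65% humidity, and watered twice daily. Percentage damage was scored after 13 days on a five point scale, where 5=80-100% and 1=0-19%.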
# [5] = tested on: Amaranthus retoflexus (AMARE); experiment: Herbicidal glasshouse test, pre-emergence, AMARE
# How it was run: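 This pre-emergence glasshouse herbicide test used Amaranthus retoflexus sown in standard soil. After one day of cultivation, an aqueous spray made from the technical ingredient in 50:50 acetone/water with 0.5% Tween 20 was applied. Pots stayed at 24/16° C., 14 hours light, 65% humidity, with twice-daily watering. Damage was rated on a five point scale (1=0-19% up to 5=80-100%).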
# [6] = tested on: Ipomoea hederacea (IPOHE); experiment: Herbicidal glasshouse test, pre-emergence, IPOHE
# [7] = tested on: Alopecurus myosuroides (ALOMY); experiment: Herbicidal glasshouse test, post-emergence, ALOMY
# Setaria faberi (SETFA) [8] = experiment: Herbicidal glasshouse test, post-emergence, SETFA
# How it was run: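 This post-emergence glasshouse herbicide test used potted Setaria faberi. Plants were cultivated for 8 days under controlled conditions (24/16° C. day/night, 14 hours light, 65% humidity) and then treated with an aqueous spray made from an acetone/water (50:50) solution containing 0.5% Tween 20. After 13 days of further growth with twice-daily watering, damage was rated on a five point scale (5=80-100%; 1=0-19%).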
# [9] = tested on: Echinochloa crus-galli (ECHCG); experiment: Herbicidal glasshouse test, post-emergence, ECHCG
# How it was run: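 In this post-emergence glasshouse test, barnyard grass (ECHCG) was cultivated for 8 days under controlled conditions (24/16° C. day/night, 14 hours light, 65% humidity). It was then sprayed with an aqueous solution of the technical compound in acetone / water (50:50) with 0.5% Tween 20. Plants were kept under the same conditions and watered twice daily. After 13 days, percentage damage was rated on a five point scale (5=80-100%; 1=0-19%).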
# Solanum nigrum (SOLNI) [10] = experiment: Herbicidal glasshouse test, post-emergence, SOLNI
# [11] = tested on: Amaranthus retoflexus (AMARE); experiment: Herbicidal glasshouse test, post-emergence, AMARE
# How it was run: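 This post-emergence glasshouse test used AMARE plants raised in standard soil for 8 days under controlled conditions (24/16° C. day/night, 14 hours light, 65% humidity). Foliage was sprayed with formulated compound in acetone/water (50:50) containing 0.5% Tween 20. Plants were then watered twice daily, and after 13 days percentage damage was rated on a five point scale.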
# [12] = tested on: Ipomoea hederacea (IPOHE); experiment: Herbicidal glasshouse test, post-emergence, IPOHE
Compound,"PRE Application ALOMY, percentage damage (five point scale) [1]","PRE Application SETFA, percentage damage (five point scale) (Setaria faberi (SETFA) [2])","PRE Application ECHCG, percentage damage (five point scale) [3]","PRE Application SOLNI, percentage damage (five point scale) (Solanum nigrum (SOLNI) [4])","PRE Application AMARE, percentage damage (five point scale) [5]","PRE Application IPOHE, percentage damage (five point scale) [6]","POST Application ALOMY, percentage damage (five point scale) [7]","POST Application SETFA, percentage damage (five point scale) (Setaria faberi (SETFA) [8])","POST Application ECHCG, percentage damage (five point scale) [9]","POST Application SOLNI, percentage damage (five point scale) (Solanum nigrum (SOLNI) [10])","POST Application AMARE, percentage damage (five point scale) [11]","POST Application IPOHE, percentage damage (five point scale) [12]"
Cn1nnnc1NC(=O)c1nn(C)c(=O)n(Cc2c(Cl)cccc2Cl)c1=O [Compound 1.072],5 (5=80-100%),2 (2=20-39%),5 (5=80-100%),5 (5=80-100%),5 (5=80-100%),3 (3=40-59%),4 (4=60-79%),4 (4=60-79%),4 (4=60-79%),5 (5=80-100%),5 (5=80-100%),4 (4=60-79%)
Cn1ncnc1NC(=O)c1nn(C)c(=O)n(-c2cccc(F)c2F)c1=O [Compound 5.002],3 (3=40-59%),2 (2=20-39%),3 (3=40-59%),5 (5=80-100%),5 (5=80-100%),5 (5=80-100%),5 (5=80-100%),5 (5=80-100%),5 (5=80-100%),5 (5=80-100%),5 (5=80-100%),5 (5=80-100%)
Cn1nnnc1NC(=O)c1nn(C)c(=O)n(Cc2ccccc2C#N)c1=O [Compound 1.083],5 (5=80-100%),5 (5=80-100%),5 (5=80-100%),5 (5=80-100%),5 (5=80-100%),5 (5=80-100%),5 (5=80-100%),5 (5=80-100%),5 (5=80-100%),5 (5=80-100%),5 (5=80-100%),5 (5=80-100%)
Cn1nnnc1NC(=O)c1nn(C)c(=O)n(-c2ccc([N+](=O)[O-])cc2)c1=O [Compound 1.031],3 (3=40-59%),4 (4=60-79%),4 (4=60-79%),5 (5=80-100%),5 (5=80-100%),4 (4=60-79%),4 (4=60-79%),5 (5=80-100%),5 (5=80-100%),5 (5=80-100%),5 (5=80-100%),2 (2=20-39%)
CCCn1nnnc1NC(=O)c1cn(C)c(=O)n(-c2cccc(F)c2)c1=O [Compound 4.005],1 (1=0-19%),1 (1=0-19%),2 (2=20-39%),5 (5=80-100%),4 (4=60-79%),4 (4=60-79%),3 (3=40-59%),1 (1=0-19%),2 (2=20-39%),5 (5=80-100%),5 (5=80-100%),5 (5=80-100%)
Cn1nnnc1NC(=O)c1nn(C)c(=O)n(-c2cccc(C(F)(F)F)c2)c1=O [Compound 1.028],5 (5=80-100%),5 (5=80-100%),5 (5=80-100%),5 (5=80-100%),5 (5=80-100%),5 (5=80-100%),5 (5=80-100%),5 (5=80-100%),5 (5=80-100%),5 (5=80-100%),5 (5=80-100%),5 (5=80-100%)
Cn1nnnc1NC(=O)c1nn(C)c(=O)n(Cc2ccc(F)c(F)c2)c1=O [Compound 1.064],5 (5=80-100%),1 (1=0-19%),5 (5=80-100%),5 (5=80-100%),5 (5=80-100%),5 (5=80-100%),2 (2=20-39%),2 (2=20-39%),5 (5=80-100%),5 (5=80-100%),5 (5=80-100%),5 (5=80-100%)
Cc1cc(Cn2c(=O)c(C(=O)Nc3nnnn3C)nn(C)c2=O)cc(C)c1F [Compound 1.078],2 (2=20-39%),1 (1=0-19%),2 (2=20-39%),5 (5=80-100%),5 (5=80-100%),2 (2=20-39%),2 (2=20-39%),2 (2=20-39%),4 (4=60-79%),5 (5=80-100%),5 (5=80-100%),5 (5=80-100%)
